In patent publication US12391685B2, “Inhibitors of RNA-guided nuclease target binding and uses thereof” (THE BROAD INSTITUTE, INC., priority 2018, dated 2025):

Columns and labels:
Format in all cases: binding, S. pyogenes
[1] = molecular target: T1, SpCas9 (Streptococcus pyogenes serotype M1, UniProt Q99ZW2); experiment: In vitro pulldown from WM793-SpCas9 cell lysate; design: host or cells: U2OS.eGFP.PEST; details: streptavidin magnetic beads, 12 h
[2] = molecular target: T2, SpCas9:gRNA complex (Streptococcus pyogenes serotype M1, UniProt Q99ZW2); experiment: Bio-layer interferometry (BLI), compound-SpCas9 interaction; details: 1 μM biotinylated compound on streptavidin sensors, SpCas9:gRNA 0.15-1 μM; read-out: dissociation constant
T2 construct: made in house; host or cells: E. coli Rosetta (DE3)
Protocol: Compound-SpCas9 interaction in BLI. The experiments were performed in a 96-well format with 180 μL reaction volume using […] and streptavidin sensors. 1 μM of the biotinylated compound was loaded onto the sensors for 180 s in 20 mM Tris buffer (100 mM KCl, 5 mM MgCl2, 1 mM DTT, 0.01% Tween, pH 7.4). Compound-loaded sensors were then allowed to associate with different concentrations of the SpCas9:gRNA complex (0.15-1 μM) for 300 s, followed by dissociation in reaction buffer. The reference sensor was loaded with compound and allowed to associate and dissociate in reaction buffer alone. Response curves were fitted with a 2:1 stoichiometric model and a global fit steady-state analysis was performed using manufacturer's protocol. Experiments were performed in triplicate.
Competition experiments were performed using biotin-linker fragment. In this experiment, streptavidin sensors were pre-incubated with 10 μM of biotin-linker for 10 min before dipping into a solution of either 1 μM BRD7087-biotin or reaction buffer alone. Sensors were then allowed to associate with different concentration of SpCas9:gRNA complex (0.15-1 μM) or buffer alone.

[3] = molecular target: T1, SpCas9; experiment: In vitro pull-down assay with preformed SpCas9:gRNA complex; design: made in house; host or cells: E. coli Rosetta (DE3)
Protocol: In vitro pull-down assay. Pull-down of SpCas9 by biotinylated compound was performed by incubating a preformed SpCas9:gRNA complex with biotin-compound pre-loaded streptavidin magnetic beads. Initially, a 5 μM biotin compound was incubated with 120 μL streptavidin magnetic bead suspension for 30 min in 1× Cas9 activity buffer (20 mM Tris-HCl buffer, 150 mM KCl, 5 mM MgCl2, 1 mM DTT, pH 7.5). Next, beads were collected and washed with buffer twice and resuspended in 120 μL of 1× Cas9 activity buffer and distributed in 6 different tubes. A 0.3 μM of 480 μL of preformed SpCas9:gRNA complex were added to each tube along with the unlabeled BRD3433 compound (5 μM and 10 μM) in the competition experiment. The tubes were incubated at 4° C. for 12 h before collecting the beads and washed with 500 μL 1× Cas9 activity buffer. The beads were resuspended in 1× SDS gel loading buffer and denatured at 98° C. for 10 min. The samples were analyzed by electrophoresis followed by staining with Coomassie for 15 min before imaging.

T1 sequence (Q99ZW2 whole entry): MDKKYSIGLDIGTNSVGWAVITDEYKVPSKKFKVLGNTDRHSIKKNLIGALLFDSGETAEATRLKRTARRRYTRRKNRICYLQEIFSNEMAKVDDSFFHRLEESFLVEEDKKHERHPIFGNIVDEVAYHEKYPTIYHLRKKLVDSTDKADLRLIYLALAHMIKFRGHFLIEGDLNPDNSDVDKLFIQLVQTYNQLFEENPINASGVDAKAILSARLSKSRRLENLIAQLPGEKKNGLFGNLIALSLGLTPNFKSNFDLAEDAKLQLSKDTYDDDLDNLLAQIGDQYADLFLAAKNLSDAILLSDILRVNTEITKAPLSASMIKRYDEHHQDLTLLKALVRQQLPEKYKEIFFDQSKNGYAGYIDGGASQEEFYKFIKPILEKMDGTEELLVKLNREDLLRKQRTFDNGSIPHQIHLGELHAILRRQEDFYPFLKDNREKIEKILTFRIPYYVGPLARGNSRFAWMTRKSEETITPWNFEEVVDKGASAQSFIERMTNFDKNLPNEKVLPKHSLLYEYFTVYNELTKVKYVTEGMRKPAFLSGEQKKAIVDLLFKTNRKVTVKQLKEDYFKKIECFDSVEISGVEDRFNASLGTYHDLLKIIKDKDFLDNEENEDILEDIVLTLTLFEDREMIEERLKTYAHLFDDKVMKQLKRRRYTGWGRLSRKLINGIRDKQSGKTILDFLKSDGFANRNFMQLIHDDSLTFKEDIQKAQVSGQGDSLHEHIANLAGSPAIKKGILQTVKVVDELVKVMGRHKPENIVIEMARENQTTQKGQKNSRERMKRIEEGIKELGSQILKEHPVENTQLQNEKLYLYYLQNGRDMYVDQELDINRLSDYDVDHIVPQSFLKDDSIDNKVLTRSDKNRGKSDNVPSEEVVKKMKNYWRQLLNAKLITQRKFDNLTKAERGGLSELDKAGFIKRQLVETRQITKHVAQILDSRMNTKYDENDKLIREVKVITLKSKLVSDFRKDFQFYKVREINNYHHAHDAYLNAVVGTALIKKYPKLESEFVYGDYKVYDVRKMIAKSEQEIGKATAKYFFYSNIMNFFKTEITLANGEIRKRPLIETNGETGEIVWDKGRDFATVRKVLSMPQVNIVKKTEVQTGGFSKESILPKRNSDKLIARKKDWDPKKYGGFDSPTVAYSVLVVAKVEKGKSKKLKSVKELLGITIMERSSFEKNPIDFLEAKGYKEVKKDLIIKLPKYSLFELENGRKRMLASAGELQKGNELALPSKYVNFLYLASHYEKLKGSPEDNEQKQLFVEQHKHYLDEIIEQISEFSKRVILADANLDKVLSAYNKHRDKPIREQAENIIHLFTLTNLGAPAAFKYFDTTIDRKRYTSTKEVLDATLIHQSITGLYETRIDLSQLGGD
T2 sequence (Q99ZW2 whole entry, one chain of several): as the sequence (Q99ZW2 whole entry) above

Cc1ccc(S(=O)(=O)N2CC[C@@H]3[C@H](CNC(=O)CCOCCOCCOCCNC(=O)CCCC[C@@H]4SC[C@@H]5NC(=O)N[C@@H]54)Nc4ccc(-c5ccccc5F)cc4[C@@H]32)cc1 [biotinylated BRD0539, N-(1-((3aR,4R,9bR)-8-(2-fluorophenyl)-1-tosyl-2,3,3a,4,5,9b-hexahydro-1H-pyrrolo[3,2-c]quinolin-4-yl)-3-oxo-6,9,12-trioxa-2-azatetradecan-14-yl)-5-((3aS,4S,6aR)-2-oxohexahydro-1H-thieno[3,4-d]imidazol-4-yl) pentanamide]
pulldown of SpCas9 from WM793-SpCas9 cell lysate [1]: able to pulldown SpCas9

O=C(CCCC[C@@H]1SC[C@@H]2NC(=O)N[C@@H]21)NCCOCCOCCOCCC(=O)Nc1cccc(-c2ccc3c(c2)[C@H]2[C@H](CCN2Cc2ccncc2)[C@@H](CO)N3)c1 [BRD3539, N-(2-(2-(2-(3-((3-((3aR,4S,9bR)-4-(Hydroxymethyl)-1-(pyridin-4-ylmethyl)-2,3,3a,4,5,9b-hexahydro-1H-pyrrolo[3,2-c]quinolin-8-yl)phenyl)amino)-3-oxopropoxy)ethoxy)ethoxy)ethyl)-5-((3aS,4S,6aR)-2-oxohexahydro-1H-thieno[3,4-d]imidazol-4-yl) pentanamide]
Kd [2]: 700 nM

COc1cccc(-c2ccc3c(c2)[C@H]2[C@H](CCN2C(=O)Cc2ccncc2)[C@H](CNC(=O)CCOCCOCCOCCNC(=O)CCCC[C@@H]2SC[C@@H]4NC(=O)N[C@@H]42)N3C)c1 [biotinylated BRD3433, N-(1-((3aS,4R,9bR)-8-(3-methoxyphenyl)-5-methyl-1-(2-(pyridin-4-yl)acetyl)-2,3,3a,4,5,9b-hexahydro-1H-pyrrolo[3,2-c]quinolin-4-yl)-3-oxo-6,9,12-trioxa-2-azatetradecan-14-yl)-5-((3aS,4S,6aR)-2-oxohexahydro-1H-thieno[3,4-d]imidazol-4-y1) pentanamide]
pull-down of SpCas9 (gel electrophoresis) [3]: enrichment of SpCas9 in the eluent
